Reference: ChEMBL document CHEMBL4433260, “Oxadiazole scaffolds in anti-tuberculosis drug discovery” (Bioorg Med Chem Lett, 2019)
Values after ≈ are worked out from the molar mass of the structure shown.

Experiments:
[1] = tested on: Mycolicibacterium smegmatis; experiment: Antimycobacterial activity against Mycobacterium smegmatis str. MC2 155; assay type: functional
[2] = tested on: Mycobacterium tuberculosis; experiment: Antimycobacterial activity against replicating Mycobacterium tuberculosis H37Rv at 8 ug/ml relative to control; assay type: functional
[3] = tested on: Mycobacterium tuberculosis; experiment: Antimycobacterial activity against non-replicating Mycobacterium tuberculosis H37Rv at 1.6 ug/ml relative to control; assay type: functional
[4] = tested on: Mycobacterium tuberculosis; experiment: Antimycobacterial activity against Mycobacterium tuberculosis Erdman; assay type: functional
[5] = tested on: Mycobacterium tuberculosis; experiment: Antimycobacterial activity against Mycobacterium tuberculosis H37Rv at 250 ug/ml measured after 4 weeks by Lowensteine-Jensen method relative to control; assay type: functional; conditions: 672 h
[6] = tested on: Mycobacterium tuberculosis; experiment: Antimycobacterial activity against Mycobacterium tuberculosis H37Rv measured after 28 days by Lowensteine-Jensen method; assay type: functional; conditions: 672 h
[7] = tested on: Mycobacterium tuberculosis; experiment: Antimycobacterial activity against Mycobacterium tuberculosis H37Rv incubated for 5 days by alamar blue assay; assay type: functional; conditions: 120 h
[8] = tested on: Mycobacterium tuberculosis; experiment: Antitubercular activity against dormant stage of Mycobacterium tuberculosis H37Ra; assay type: functional
[9] = tested on: Mycobacterium tuberculosis; experiment: Antimycobacterial activity against Mycobacterium tuberculosis H37Rv at 100 ug/ml by alamar blue assay relative to control; assay type: functional
[10] = tested on: Mycobacterium tuberculosis; experiment: Antimycobacterial activity against Mycobacterium tuberculosis H37Rv by alamar blue assay; assay type: functional
[11] = tested on: Mycobacterium tuberculosis; experiment: Antimycobacterial activity against Mycobacterium tuberculosis H37Rv; assay type: functional
[12] = Inhibition of Mycobacterium tuberculosis H37Rv shikimate kinase using shikimic acid as substrate preincubated for 15 mins followed by substrate addition in presence of ATP by LC/MS analysis

With O=C(Nc1nnc(-c2ccc(F)cc2)o1)c1ccc(Cl)cc1 the MIC [1] was 0.4 µg/mL (≈ 1.26 µM), the inhibition at 8 µg/mL [2] was over 90% and the inhibition at 1.6 µg/mL [3] was over 90%. The MIC [4] was 1.6 µg/mL (≈ 5.04 µM).
Cc1ccc(-c2nnc(-c3c(C)nn(-c4ccccc4)c3Oc3cccc(F)c3)o2)cc1 showed an inhibition at 250 µg/mL [5] of over 90%.
Clc1nc2ccccc2cc1CN(c1ccccc1)c1nnc(-c2ccncc2)o1 showed an MIC [6] of 60 to 200 µM (≈ 24.8 to 82.8 µg/mL).
With Cn1c(-c2cccc(Cl)c2Cl)nc2cc(-c3nc(-c4ccc(Cl)cc4)no3)ccc21 the MIC [7] was 1.6 µg/mL (≈ 3.51 µM).
Cn1c(-c2cccc(Cl)c2F)nc2cc(-c3nc(Cc4cccc(Cl)c4)no3)ccc21 showed an MIC [7] of 1.6 µg/mL (≈ 3.53 µM).
For CC1(C)Cc2c(C#CCO)c(NC(=O)C(C)(C)C)cc(-c3nnc(-c4ccc(C(F)(F)F)cc4)o3)c2O1, the IC90 [8] was 5.7 µM.
Molecule COc1ccc(-c2nnc(-c3cc4cc(C)ccc4n4nnnc34)o2)cc1 has an inhibition at 100 µg/mL [9] of over 90%.
Molecule Clc1ccc(-c2nnc(/N=C/c3ccco3)o2)cc1 has an MIC [10] of 3.12 µg/mL (≈ 11.4 µM).
Molecule Clc1ccc2nc(Cl)c(CN(c3ccccc3)c3nnc(-c4ccncc4)o3)cc2c1 has an MIC [6] of 60 to 200 µM (≈ 26.9 to 89.7 µg/mL).
Work on Cc1ccc(-c2nnc(-c3c(C)nn(-c4ccccc4)c3Oc3ccc(F)cc3)o2)cc1 yielded an inhibition at 250 µg/mL [5] of over 90%.
Molecule CO[C@H]1O[C@H](Cc2nnc(C)o2)[C@@H](OCc2ccccc2)[C@H](OCc2ccccc2)[C@H]1OCc1ccccc1 has an MIC [11] of 60 µM.
O=C(Nc1nnc(-c2ccccc2Cl)o1)c1cccc(Oc2ccccc2)c1 gave an MIC [11] of under 1 µg/mL and an IC50 [12] of 3.43 µM.
Cc1ccc2nc(Cl)c(CN(c3ccccc3)c3nnc(-c4cccnc4)o3)cc2c1 gave an MIC [6] of 60 to 200 µM (≈ 25.7 to 85.6 µg/mL).
Cc1nn(-c2ccccc2)c(Oc2cccc(C(F)(F)F)c2)c1-c1nnc(-c2ccc(Br)cc2)o1 gave an inhibition at 250 µg/mL [5] of over 90%.
Cc1ccc2c(c1)cc(-c1nnc(-c3ccncc3)o1)c1nnnn12 gave an inhibition at 100 µg/mL [9] of over 90%.
Molecule Cc1nn(-c2ccccc2)c(Oc2ccc(F)cc2)c1-c1nnc(-c2ccc(Br)cc2)o1 has an inhibition at 250 µg/mL [5] of over 90%.
For Cn1c(-c2cccc(Cl)c2Cl)nc2cc(-c3nc(-c4ccccc4Cl)no3)ccc21, the MIC [7] was 1.6 µg/mL (≈ 3.51 µM).
In the case of O=C(/C=C/c1ccccc1)Nc1nnc(C2CCCc3ccccc32)o1 (stereo not given), the MIC [11] is reported as under 1 µg/mL and the IC50 [12] is reported as 3.79 µM.
Cn1c(-c2cccc(Cl)c2F)nc2cc(-c3nc(-c4ccc(Cl)cc4)no3)ccc21 gave an MIC [7] of 1.6 µg/mL (≈ 3.64 µM).
Molecule Clc1ccc2nc(Cl)c(CN(c3ccccc3)c3nnc(-c4cccnc4)o3)cc2c1 has an MIC [6] of 60 to 200 µM (≈ 26.9 to 89.7 µg/mL).
